According to patent publication EP4588921A1, “FREE BASE CRYSTAL FORM OF POLYCYCLIC COMPOUND OF NITROGEN-CONTAINING HETEROCYCLE, AND PREPARATION METHOD THEREFOR” (Jiangsu Hansoh Pharmaceutical Group Co., Ltd., priority 2022, dated 2024):

Experiments:
human OX1R = target: T1, human OX1R (Homo sapiens, UniProt O43613); experiment: Calcium current (FLIPR) in cells stably expressing OX1 receptor; type: cell-based; conditions: CHO-K1/human OX1R cells; agonist OX-A at EC80; FLIPR Tetra
T1 construct: expressed in transfected cells; host or cells: CHO-K1
T1 sequence (O43613 1-425): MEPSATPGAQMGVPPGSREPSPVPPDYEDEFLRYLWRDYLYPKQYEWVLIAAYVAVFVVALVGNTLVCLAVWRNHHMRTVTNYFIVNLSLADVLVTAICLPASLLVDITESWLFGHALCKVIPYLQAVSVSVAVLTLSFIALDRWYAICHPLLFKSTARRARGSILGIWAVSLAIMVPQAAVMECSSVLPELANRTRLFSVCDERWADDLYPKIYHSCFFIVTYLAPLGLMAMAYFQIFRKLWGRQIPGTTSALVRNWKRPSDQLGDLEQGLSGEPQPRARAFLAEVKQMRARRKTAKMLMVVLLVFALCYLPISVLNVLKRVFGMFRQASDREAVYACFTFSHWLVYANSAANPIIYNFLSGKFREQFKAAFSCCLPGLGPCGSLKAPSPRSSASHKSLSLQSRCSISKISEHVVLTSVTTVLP
Experimental: (§1) Determination of the effect of the compounds of the present invention on calcium current in cells stably expressing OX1 and OX2 receptors 1. Experimental objective: The inhibitory effect of the compounds on calcium current activity in CHO-K1/human OX1R and CHO-K1/human OX2R cells was detected. 2. […] 3. […] The IC50 of the positive compounds and test compounds was determined. 4. Experimental data processing method: FLIPR Tetra was used to read and collect the fluorescence signal value (RFU). […] 5.

human OX2R = target: T2, human OX2R (Homo sapiens, UniProt O43614); experiment: Calcium current (FLIPR) in cells stably expressing OX2 receptor; type: cell-based; conditions: for IC50: CHO-K1/human OX2R cells, agonist OX-B at EC80, FLIPR Tetra; for Select fold: OX1R IC50 over OX2R IC50
T2 construct: expressed in transfected cells; host or cells: CHO-K1
T2 sequence (O43614 1-444): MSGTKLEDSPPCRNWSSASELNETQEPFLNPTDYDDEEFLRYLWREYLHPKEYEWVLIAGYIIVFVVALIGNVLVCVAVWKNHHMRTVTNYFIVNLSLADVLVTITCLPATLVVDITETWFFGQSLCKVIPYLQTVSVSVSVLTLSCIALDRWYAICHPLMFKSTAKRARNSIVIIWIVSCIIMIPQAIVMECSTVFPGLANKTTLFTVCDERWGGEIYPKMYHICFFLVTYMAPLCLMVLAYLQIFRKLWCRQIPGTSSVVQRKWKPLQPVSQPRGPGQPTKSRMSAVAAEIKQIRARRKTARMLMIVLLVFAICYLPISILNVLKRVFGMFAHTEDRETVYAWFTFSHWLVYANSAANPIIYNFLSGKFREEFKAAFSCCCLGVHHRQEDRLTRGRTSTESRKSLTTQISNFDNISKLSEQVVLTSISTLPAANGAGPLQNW
Experimental: as §1

in vivo = conditions: male, SD, rat, po, 5 mg/kg
Experimental: SD rats were used as test animals to study the pharmacokinetic behaviour of the compounds of the present invention in rat (plasma) after oral administration at a dose of 5 mg/kg.
The example compound of the present invention, made in house.
Oral administration drug preparation: 20%HP-β-CD in Water
HP-β-CD powder (20 g) was weighed and dissolved in purified water (100 mL), and the mixture was homogeneously mixed by vortex and subjected to ultrasound treatment to afford a clear solution.
The example compound was weighed and added to a 20 mL glass bottle, the solution was added and the mixture was subjected to ultrasound treatment for 10 minutes to afford a colourless clear solution with a concentration of 0.5 mg/mL.
The brain tissues were rinsed with pre-cooled PBS, wiped dry, weighed, and stored at -80°C.
• 1) Acetonitrile (160 µL) was added to plasma sample (40 µL) for precipitation, and the mixture was mixed and centrifuged at 3500 × g for 5 to 20 minutes. • 2) The treated supernatant solution was taken and subjected to LC/MS/MS to analyse the concentrations of the test compounds. LC/MS/MS analysis instrument: AB Sciex API 4000 Qtrap.
• Liquid phase conditions: Shimadzu LC-20AD pump • Chromatographic column: Agilent ZORBAX XDB-C18 (50×2.1 mm, 3.5 µm) mobile phase: liquid A: 0.1% aqueous formic acid solution, liquid B: acetonitrile • Flow rate: 0.4 mL/min • Elution time: 0-4.0 min, the eluent is as follows:
The main pharmacokinetic parameters were calculated using WinNonlin 6.1.

CYP450 1A2 = target: T3, CYP450 1A2 (Homo sapiens, UniProt P05177); experiment: CYP enzyme single point inhibition test, human liver microsomes; type: in vitro ADME; conditions: 20 min incubation
T3 construct: Human liver microsome incubation system was used; from tissue; host or cells: human liver microsomes
T3 sequence (P05177 1-516): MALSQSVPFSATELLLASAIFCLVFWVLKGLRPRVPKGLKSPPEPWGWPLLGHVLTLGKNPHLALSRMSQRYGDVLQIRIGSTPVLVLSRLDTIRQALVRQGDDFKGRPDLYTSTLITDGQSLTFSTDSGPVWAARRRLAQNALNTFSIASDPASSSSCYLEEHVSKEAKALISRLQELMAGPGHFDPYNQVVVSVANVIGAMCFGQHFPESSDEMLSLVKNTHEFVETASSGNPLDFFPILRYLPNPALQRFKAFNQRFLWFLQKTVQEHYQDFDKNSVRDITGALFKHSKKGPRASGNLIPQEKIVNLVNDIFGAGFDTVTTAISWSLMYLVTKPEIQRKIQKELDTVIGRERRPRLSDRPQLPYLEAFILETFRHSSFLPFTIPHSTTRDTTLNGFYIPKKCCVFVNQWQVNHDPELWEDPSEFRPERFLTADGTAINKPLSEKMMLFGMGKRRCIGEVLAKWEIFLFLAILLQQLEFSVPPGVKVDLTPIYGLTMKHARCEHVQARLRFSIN
Experimental: (§2) Human liver microsome incubation system was used, and the single point method was used to quickly predict the inhibition of compounds on CYP450 enzyme subtypes.
(§3) NADPH (reduced nicotinamide adenine dinucleotide phosphate) was weighed and added to 100 mM phosphate buffer, with the final concentration being 2.5 mM.
(§4) Formulation of the reaction liquid of the test compound: The test example compound was weighed, diluted to 10 mM with DMSO, and diluted to 100 µM with 100 mM phosphate buffer.
(§5) • 1. Liver microsomes (40 µL), substrate (10 µL), and test compound (10 µL) were added to a 96-well plate and the mixture was pre-incubated for 3 min. • 2. NADPH (40 µL) was added. • 3. At 20 min, acetonitrile stop solution containing internal standard (300 µL) was added. • 4. The mixture was centrifuged and the sample was loaded.

CYP450 2C19 = target: T4, CYP450 2C19 (Homo sapiens, UniProt P33261); experiment: as above; type: in vitro ADME; conditions: 20 min incubation
T4 construct: Human liver microsome incubation system was used; from tissue; host or cells: human liver microsomes
T4 sequence (P33261 whole entry): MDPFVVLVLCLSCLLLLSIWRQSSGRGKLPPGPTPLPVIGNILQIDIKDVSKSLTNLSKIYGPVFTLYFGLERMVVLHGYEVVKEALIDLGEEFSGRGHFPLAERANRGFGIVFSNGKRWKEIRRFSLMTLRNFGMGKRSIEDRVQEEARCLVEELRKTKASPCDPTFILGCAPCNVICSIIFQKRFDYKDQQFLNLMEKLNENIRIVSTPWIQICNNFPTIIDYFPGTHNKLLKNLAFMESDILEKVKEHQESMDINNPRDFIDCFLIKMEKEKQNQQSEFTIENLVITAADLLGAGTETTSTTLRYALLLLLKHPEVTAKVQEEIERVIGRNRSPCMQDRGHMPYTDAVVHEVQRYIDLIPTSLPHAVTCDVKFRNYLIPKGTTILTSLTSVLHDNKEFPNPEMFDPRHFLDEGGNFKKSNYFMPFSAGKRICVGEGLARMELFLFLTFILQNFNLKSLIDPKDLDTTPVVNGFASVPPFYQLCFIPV
Experimental: as §2, §3, §4, §5

CYP450 2C9 = target: T5, CYP450 2C9 (Homo sapiens, UniProt P11712); experiment: as above; type: in vitro ADME; conditions: 20 min incubation
T5 construct: Human liver microsome incubation system was used; from tissue; host or cells: human liver microsomes
T5 sequence (P11712 whole entry): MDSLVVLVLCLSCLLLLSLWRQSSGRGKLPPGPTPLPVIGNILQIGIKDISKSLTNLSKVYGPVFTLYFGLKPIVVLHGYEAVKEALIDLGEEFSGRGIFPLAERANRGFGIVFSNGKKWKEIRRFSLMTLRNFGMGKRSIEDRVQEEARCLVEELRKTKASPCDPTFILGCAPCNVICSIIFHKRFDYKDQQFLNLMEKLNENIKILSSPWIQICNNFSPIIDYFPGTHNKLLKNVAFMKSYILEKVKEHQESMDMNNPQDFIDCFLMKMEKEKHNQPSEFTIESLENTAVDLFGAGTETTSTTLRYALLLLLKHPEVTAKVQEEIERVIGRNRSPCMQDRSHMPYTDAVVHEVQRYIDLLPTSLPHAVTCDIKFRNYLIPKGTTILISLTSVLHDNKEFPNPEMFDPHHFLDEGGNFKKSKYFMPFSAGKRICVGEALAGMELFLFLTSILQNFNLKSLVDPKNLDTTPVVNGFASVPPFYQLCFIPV
Experimental: as §2, §3, §4, §5

CYP450 2D6 = target: T6, CYP450 2D6 (Homo sapiens, UniProt P10635); experiment: as above; type: in vitro ADME; conditions: 20 min incubation
T6 construct: Human liver microsome incubation system was used; from tissue; host or cells: human liver microsomes
T6 sequence (P10635 whole entry): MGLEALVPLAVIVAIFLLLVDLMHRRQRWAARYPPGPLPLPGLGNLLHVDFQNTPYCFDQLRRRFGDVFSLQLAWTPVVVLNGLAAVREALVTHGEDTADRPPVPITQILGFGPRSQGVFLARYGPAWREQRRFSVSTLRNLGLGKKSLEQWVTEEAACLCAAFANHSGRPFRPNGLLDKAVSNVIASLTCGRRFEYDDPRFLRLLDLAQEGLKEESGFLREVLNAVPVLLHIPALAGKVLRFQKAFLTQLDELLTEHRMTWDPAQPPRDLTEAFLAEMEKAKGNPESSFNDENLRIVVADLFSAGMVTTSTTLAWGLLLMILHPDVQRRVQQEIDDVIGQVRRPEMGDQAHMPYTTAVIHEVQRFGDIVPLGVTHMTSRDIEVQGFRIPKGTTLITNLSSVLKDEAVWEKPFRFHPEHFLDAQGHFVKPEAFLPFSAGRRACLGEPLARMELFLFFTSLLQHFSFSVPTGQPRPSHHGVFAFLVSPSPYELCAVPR
Experimental: as §2, §3, §4, §5

Row | IC50 (human OX1R) [µM] | IC50 (human OX2R) [µM] | Select fold (human OX2R) | AUC(0-inf) (in vivo) [ng·h/mL] | Cmax (in vivo) [ng/mL] | Tmax (in vivo) [min] | IC50 (CYP450 1A2) [µM] | IC50 (CYP450 2C19) [µM] | IC50 (CYP450 2C9) [µM] | IC50 (CYP450 2D6) [µM] | SMILES
1 | 1.32 | 0.027 | 49 | 821 | 394 | 15 | > 100 | 82.7 | > 100 | > 100 | Cc1nc(N2C[C@H]3CN(C(=O)c4cccc(F)c4-n4nccn4)C[C@H]3C2)nc(C(C)(C)O)c1F [Compound 11, (3-fluoro-2-(2H-1,2,3-triazol-2-yl)phenyl)((cis)-5-(5-fluoro-4-(2-hydroxypropan-2-yl)-6-methylpyrimidin-2-yl)hexahydropyrrolo [3,4-c]pyrrol-2(1H)-yl)methanone]
2 | 1.06 | 0.0087 | 122 | 130 | 124 | 36 | > 100 | 82.7 | > 100 | > 100 | CC(C)(O)c1nc(N2C[C@H]3CN(C(=O)c4c(F)cccc4-c4ncccn4)C[C@H]3C2)ncc1F [Compound 9, ((3aR,6aS)-5-(5-fluoro-4-(2-hydroxyprop-2-yl)pyrimidin-2-yl)hexahydropyrrolo[3,4-c]pyrrol-2(1H)-yl)(2-fluoro-6-(pyrimidin-2-yl)phenyl)methanone]
